Assay results as given in paper doi:10.1101/2024.08.19.608619, “Discovery of potent SARS-CoV-2 nsp3 macrodomain inhibitors uncovers lack of translation to cellular antiviral response” (bioRxiv, 2024).
Where two headings read alike, the source gives them in different places.

Experiments:
A2A (h) = target: T1, A2A (h) (Homo sapiens, UniProt P29274); assay: In vitro CEREP profiling, A2A (h) (agonist radioligand); assay type: binding; settings: test compound 10 uM
T1 construct: purchased Eurofins Cerep (SafetyScreen44), recognised from the panel format
Excerpt: (§1) Supplement media-1.zip/Safety_Panel_Profile.csv, table | column: perc_inhibition

GR (h) = target: T2, GR (h) (Homo sapiens, UniProt P04150); assay: In vitro CEREP profiling, GR (h) (agonist radioligand); assay type: binding; settings: test compound concentration 10 uM
T2 construct: purchased Eurofins Cerep (SafetyScreen44), recognised from the panel format
T2 sequence (P04150 1-777): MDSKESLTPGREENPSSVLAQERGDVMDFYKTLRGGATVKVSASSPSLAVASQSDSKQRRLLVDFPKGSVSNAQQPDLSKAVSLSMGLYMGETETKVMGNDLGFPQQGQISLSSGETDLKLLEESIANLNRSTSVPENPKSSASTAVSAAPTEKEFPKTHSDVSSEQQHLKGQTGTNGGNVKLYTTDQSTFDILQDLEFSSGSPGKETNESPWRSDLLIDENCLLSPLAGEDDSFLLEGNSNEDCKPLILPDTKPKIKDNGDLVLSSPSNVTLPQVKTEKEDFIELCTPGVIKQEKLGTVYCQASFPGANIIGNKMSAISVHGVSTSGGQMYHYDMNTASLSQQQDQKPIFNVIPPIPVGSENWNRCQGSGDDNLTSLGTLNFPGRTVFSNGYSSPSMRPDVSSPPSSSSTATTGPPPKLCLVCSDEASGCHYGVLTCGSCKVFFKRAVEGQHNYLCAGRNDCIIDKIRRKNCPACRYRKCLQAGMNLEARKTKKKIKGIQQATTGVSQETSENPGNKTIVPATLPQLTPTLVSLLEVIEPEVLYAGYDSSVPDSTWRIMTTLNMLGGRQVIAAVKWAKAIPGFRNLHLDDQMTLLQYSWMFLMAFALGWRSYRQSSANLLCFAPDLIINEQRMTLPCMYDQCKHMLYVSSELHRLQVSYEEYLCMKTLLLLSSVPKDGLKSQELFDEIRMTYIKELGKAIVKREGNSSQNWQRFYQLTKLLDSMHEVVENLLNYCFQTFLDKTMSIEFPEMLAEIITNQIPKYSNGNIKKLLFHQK
Excerpt: as §1

DRAK1(h) = target: T3, DRAK1(h) (Homo sapiens, UniProt Q9UEE5); assay: biochemical; design: In vitro kinase panel profiling, per cent remaining kinase activity at 10 uM; settings: atp_concentration=10, read-out: % of control remaining
T3 construct: gene STK17A
T3 sequence (Q9UEE5 1-414): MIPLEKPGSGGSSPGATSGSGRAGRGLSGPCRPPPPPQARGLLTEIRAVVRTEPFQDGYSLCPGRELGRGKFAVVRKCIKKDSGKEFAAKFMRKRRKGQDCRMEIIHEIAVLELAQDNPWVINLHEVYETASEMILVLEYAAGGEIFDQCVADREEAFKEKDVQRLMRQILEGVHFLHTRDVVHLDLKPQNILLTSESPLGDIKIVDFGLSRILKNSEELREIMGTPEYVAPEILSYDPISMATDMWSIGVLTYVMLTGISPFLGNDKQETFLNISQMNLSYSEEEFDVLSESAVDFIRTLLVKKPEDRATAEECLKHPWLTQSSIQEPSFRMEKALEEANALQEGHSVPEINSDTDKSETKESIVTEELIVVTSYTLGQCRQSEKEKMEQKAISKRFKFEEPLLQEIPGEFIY
Excerpt: (§2) We derisk potential for off-target activity by profiling the compound in a CEREP panel, a standard secondary pharmacology assessment, as well as a kinase panel to derisk a potential hinge-binding motif in our leads, and a PARP panel to derisk activity against human […]. Reassuringly, the compounds are selective, with the only off-targets being moderate human CHRM2 and KOR receptors activity associated with ASAP-0011198.

MAPKAP-K2(h) = target: T4, MAPKAP-K2(h) (Homo sapiens, UniProt P49137); assay: biochemical; design: In vitro kinase panel profiling, per cent remaining kinase activity at 10 uM; settings: atp_concentration=90, read-out: % of control remaining
T4 construct: gene MAPKAPK2
Excerpt: as §2

5-HT2B (h) = target: T5, 5-HT2B (h) (Homo sapiens, UniProt P41595); assay: In vitro CEREP profiling, 5-HT2B (h) (agonist radioligand); assay type: binding; settings: test compound concentration 10 uM
T5 construct: purchased Eurofins Cerep (SafetyScreen44), recognised from the panel format
Excerpt: as §1

5-HT1B (h) = target: T6, 5-HT1B (h) (Homo sapiens, UniProt P28222); assay: In vitro CEREP profiling, 5-HT1B (h) (antagonist radioligand); assay type: binding; settings: test compound concentration 10 uM
T6 construct: purchased Eurofins Cerep (SafetyScreen44), recognised from the panel format
Excerpt: as §1

M1 (h) = target: T7, M1 (h) (Homo sapiens, UniProt P11229); assay: In vitro CEREP profiling, M1 (h) (antagonist radioligand); assay type: binding; settings: test compound concentration 10 uM
T7 construct: purchased Eurofins Cerep (SafetyScreen44), recognised from the panel format
T7 sequence (P11229 1-460): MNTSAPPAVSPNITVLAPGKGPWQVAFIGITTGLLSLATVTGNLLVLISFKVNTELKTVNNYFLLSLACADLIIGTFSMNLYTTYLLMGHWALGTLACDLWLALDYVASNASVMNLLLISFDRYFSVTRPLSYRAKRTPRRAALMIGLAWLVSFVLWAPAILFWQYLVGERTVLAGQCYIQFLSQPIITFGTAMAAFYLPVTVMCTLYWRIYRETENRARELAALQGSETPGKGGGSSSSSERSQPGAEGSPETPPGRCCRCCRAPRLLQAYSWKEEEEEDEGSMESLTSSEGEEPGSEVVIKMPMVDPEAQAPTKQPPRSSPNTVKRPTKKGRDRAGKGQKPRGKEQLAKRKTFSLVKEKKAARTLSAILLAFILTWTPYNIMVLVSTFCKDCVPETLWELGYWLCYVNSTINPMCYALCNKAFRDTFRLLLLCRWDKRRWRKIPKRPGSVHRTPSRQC
Excerpt: as §1

human CHRM2 (M2) = target: T8, human CHRM2 (M2) (Homo sapiens, UniProt P08172); assay: Eurofins CEREP panel, M2; assay type: binding
T8 construct: purchased Eurofins Cerep (SafetyScreen44), recognised from the panel format
T8 sequence (P08172 1-466): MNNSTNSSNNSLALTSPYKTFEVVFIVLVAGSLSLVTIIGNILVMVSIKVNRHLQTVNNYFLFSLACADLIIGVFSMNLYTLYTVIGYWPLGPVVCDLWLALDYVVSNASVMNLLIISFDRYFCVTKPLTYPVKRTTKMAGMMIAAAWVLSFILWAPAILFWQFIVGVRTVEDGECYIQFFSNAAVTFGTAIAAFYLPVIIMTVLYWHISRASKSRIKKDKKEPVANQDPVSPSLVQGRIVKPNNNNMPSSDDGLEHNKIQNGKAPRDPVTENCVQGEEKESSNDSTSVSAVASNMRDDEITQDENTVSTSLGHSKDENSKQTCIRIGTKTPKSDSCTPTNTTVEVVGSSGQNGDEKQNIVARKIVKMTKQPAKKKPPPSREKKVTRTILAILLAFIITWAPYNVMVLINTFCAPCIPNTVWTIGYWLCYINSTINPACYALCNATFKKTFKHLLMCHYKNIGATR

[1] = M2 (h) (antagonist radioligand), test compound concentration 10 uM
[2] = read-out: perc_inhibition (% inhibition of the binding of a ligand specific for each target)
[3] = read-out: perc_inhibition, % inhibition of the binding of a ligand specific for each target

T6 sequence (P28222 whole entry): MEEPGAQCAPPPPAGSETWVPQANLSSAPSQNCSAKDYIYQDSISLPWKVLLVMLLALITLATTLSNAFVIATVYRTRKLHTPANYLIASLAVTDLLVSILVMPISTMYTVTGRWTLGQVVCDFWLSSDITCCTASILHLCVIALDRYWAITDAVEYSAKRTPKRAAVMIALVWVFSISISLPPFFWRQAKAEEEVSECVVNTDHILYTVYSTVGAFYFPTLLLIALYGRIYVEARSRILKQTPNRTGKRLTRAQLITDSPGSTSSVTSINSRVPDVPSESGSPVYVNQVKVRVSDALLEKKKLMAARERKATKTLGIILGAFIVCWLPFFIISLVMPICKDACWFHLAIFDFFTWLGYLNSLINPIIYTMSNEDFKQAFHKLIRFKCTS
T4 sequence (P49137 whole entry): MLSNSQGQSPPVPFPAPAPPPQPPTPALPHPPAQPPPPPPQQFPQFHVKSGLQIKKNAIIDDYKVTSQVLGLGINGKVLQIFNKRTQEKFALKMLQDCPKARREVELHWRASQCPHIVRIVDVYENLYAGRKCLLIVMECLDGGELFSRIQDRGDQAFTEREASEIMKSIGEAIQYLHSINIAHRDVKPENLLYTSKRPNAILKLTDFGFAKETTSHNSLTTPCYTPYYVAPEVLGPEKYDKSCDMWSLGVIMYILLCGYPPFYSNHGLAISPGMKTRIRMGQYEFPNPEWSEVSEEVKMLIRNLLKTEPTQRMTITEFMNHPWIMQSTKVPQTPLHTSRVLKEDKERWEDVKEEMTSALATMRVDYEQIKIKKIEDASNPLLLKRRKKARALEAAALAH
T1 sequence (P29274 whole entry): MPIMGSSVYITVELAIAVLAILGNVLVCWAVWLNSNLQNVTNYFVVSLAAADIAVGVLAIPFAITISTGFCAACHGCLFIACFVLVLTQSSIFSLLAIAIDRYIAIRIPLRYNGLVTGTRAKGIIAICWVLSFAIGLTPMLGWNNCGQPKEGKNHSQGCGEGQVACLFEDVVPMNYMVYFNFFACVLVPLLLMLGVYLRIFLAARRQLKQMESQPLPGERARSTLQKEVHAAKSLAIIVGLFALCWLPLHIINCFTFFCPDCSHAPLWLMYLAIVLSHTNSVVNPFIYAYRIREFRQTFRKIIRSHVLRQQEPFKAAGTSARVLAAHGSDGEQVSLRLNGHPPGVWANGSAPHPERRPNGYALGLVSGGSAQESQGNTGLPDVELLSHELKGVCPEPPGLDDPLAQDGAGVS
T5 sequence (P41595 whole entry): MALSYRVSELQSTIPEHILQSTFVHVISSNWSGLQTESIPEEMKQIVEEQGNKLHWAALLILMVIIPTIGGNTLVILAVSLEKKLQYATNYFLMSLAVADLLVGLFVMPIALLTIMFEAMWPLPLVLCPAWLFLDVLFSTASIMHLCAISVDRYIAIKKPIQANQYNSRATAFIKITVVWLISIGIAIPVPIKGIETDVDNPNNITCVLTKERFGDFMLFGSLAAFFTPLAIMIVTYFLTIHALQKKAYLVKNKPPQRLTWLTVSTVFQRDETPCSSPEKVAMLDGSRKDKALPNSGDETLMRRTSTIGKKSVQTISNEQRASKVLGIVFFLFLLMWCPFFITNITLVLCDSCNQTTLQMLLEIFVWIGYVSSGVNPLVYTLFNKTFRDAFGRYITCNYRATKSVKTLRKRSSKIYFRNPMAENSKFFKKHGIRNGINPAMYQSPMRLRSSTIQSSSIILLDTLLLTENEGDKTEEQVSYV

SMILES | perc_inhibition (% inhibition of the binding of a ligand specific for each target) (A2A (h)) | perc_inhibition (% inhibition of the binding of a ligand specific for each target) (GR (h)) | perc_inhibition (% inhibition of the binding of a ligand specific for each target) (5-HT2B (h)) | perc_inhibition (% inhibition of the binding of a ligand specific for each target) (5-HT1B (h)) | perc_inhibition (% inhibition of the binding of a ligand specific for each target) (M1 (h)) | perc_inhibition (% inhibition of the binding of a ligand specific for each target) (human CHRM2 (M2); [1]) | further results
CC(C)[C@@H](Nc1ncnc2[nH]c(-c3cnn(C)c3C#N)cc12)c1ccc2c(n1)OCCO2 [ASAP-0010716] | 69% | 22% | 40% | 4% | 8% | 15% | remaining activity at 10 µM (DRAK1(h); batch_name=ASAP-0010716-002): 108%; remaining activity at 10 µM (MAPKAP-K2(h); batch_name=ASAP-0010716-002): 114%
CNCc1cc(-c2cc3c(N[C@@H](c4ccc5c(c4)S(=O)(=O)CCC5)C(C)C)ncnc3[nH]2)co1 [ASAP-0011176] | 21% | 21% | -11% | 45% | 47% | 52% | remaining activity at 10 µM (DRAK1(h); batch_name=ASAP-0011176-002): 86%; remaining activity at 10 µM (MAPKAP-K2(h); batch_name=ASAP-0011176-002): 106%
CC(C)C(Nc1ncnc2[nH]c(C(=O)NC3CCN(C)C3)cc12)c1ccc2c(c1)S(=O)(=O)CCC2 (stereo not shown) [ASAP-0011198] |  |  |  |  |  |  | inhibition at 10 µM (A2A (h); [2]): -4%; inhibition at 10 µM (GR (h); [3]): 11%; remaining activity at 10 µM (DRAK1(h); batch_name=ASAP-0011198-002): 105%; remaining activity at 10 µM (MAPKAP-K2(h); batch_name=ASAP-0011198-002): 108%; inhibition at 10 µM (5-HT2B (h); [3]): 6%; inhibition at 10 µM (5-HT1B (h); [2]): 17%; inhibition at 10 µM (M1 (h); [2]): 17%; off-target activity at human CHRM2, in words (human CHRM2 (M2); CEREP panel): moderate; inhibition at 10 µM (human CHRM2 (M2); M2 (h) (antagonist radioligand), test compound concentration 10 uM, read-out: perc_inhibition (% inhibition of the binding of a ligand specific for each target)): 52%
Cn1ncc(-c2cc3c(N[C@@H](c4ccc5c(n4)OCCO5)C(C)(C)C)ncnc3[nH]2)c1C#N [ASAP-0011221] | 52% | 28% | -5% | 18% | 13% | 25% | remaining activity at 10 µM (DRAK1(h); batch_name=ASAP-0011221-002): 108%; remaining activity at 10 µM (MAPKAP-K2(h); batch_name=ASAP-0011221-002): 110%
COc1ccc([C@H](Cc2nnn[nH]2)NC(=O)c2ncnc3[nH]ccc23)cc1 [ASAP-0015381] | -13% | 1% | -33% | -14% | -4% | -12% | remaining activity at 10 µM (MAPKAP-K2(h); batch_name=ASAP-0015381-001): 102%
